# Test results as given in patent US20120135923A1, “Use of Melanocortins to Treat Dyslipidemia” (IPSEN PHARMA, S.A.S., priority 2009, published 2012).
# Read-outs that look alike come from different tables or passages of the source. Bridge positions count the residues as written; N and C are the ends. Square brackets hold non-standard residues; d marks the D form. Peptide text beside a SMILES is read from it. d2Nal = N[C@H](Cc1ccc2ccccc2c1)C(=O)O; Bta = N[C@@H](Cc1csc2ccccc12)C(=O)O; Pen = CC(C)(S)[C@H](N)C(=O)O; Nle = CCCC[C@H](N)C(=O)O; Ava = NCCCCC(=O)O; GABA = NCCCC(=O)O; βAla = NCCC(=O)O
# Columns and labels:
# Assay in all cases: cyclic AMP bioassay (ECL) in CHO-K1 cells
# Type in all cases: cell-based
# [1] = molecular target: T1, hMC3-R (Homo sapiens, UniProt P41968)
# T1 construct: expressed in transfected cells; host or cells: CHO-K1
# Procedure: (§1) Intracellular cyclic AMP (cAMP) levels were determined by an electrochemiluminescence (ECL) assay (Meso Scale Discovery®, Gaithersburg, Md.; referred to hereinafter as MSD). […] Transgenic CHO-K1 cells stably expressing hMC receptor subtypes 1, 3, 4 or 5 were dispensed at a density of approximately 7,000 cells/well in 384-well Multi-Array®plates (MSD) containing integrated carbon electrodes and coated with anti-cAMP antibody. Increasing concentrations of the test compounds were added and the cells were incubated for approximately 40 minutes at approximately 37° C. […] At the end of the second incubation period read buffer (Tris-buffered solution containing an ECL co-reactant and Triton X-100 at ph 7.8) was added and the cAMP levels in the cell lysates were immediately determined by ECL detection with a Sector Imager 6000 Reader® (MSD). Data were analyzed using a computer-assisted non-linear regression analysis (XL fit; IDBS) and reported as either an EC50 value or a Kb value.
# (§2) The Kb value reflects the potency of an antagonist and is determined by Schild analysis. In brief, concentration-response curves of an agonist are carried out in the presence of increasing concentrations of an antagonist. […] It is calculated by extrapolating the line on a Schild plot to zero on the y-axis.
# [2] = molecular target: T2, hMC4-R (Homo sapiens, UniProt P32245)
# T2 construct: expressed in transfected cells; host or cells: CHO-K1
# Procedure: as §1, §2
# [3] = molecular target: T3, hMC1-R (Homo sapiens, UniProt Q01726)
# T3 construct: expressed in transfected cells; host or cells: CHO-K1
# Procedure: as §1, §2
# [4] = molecular target: T4, hMC5-R (Homo sapiens, UniProt P33032)
# T4 construct: expressed in transfected cells; host or cells: CHO-K1
# [5] = Table 9A/9B, read-out: EC50 hMC1-R
# [6] = Table 9A/9B, read-out: EC50 hMC3-R
# [7] = Table 9A/9B, read-out: EC50 hMC4-R
# [8] = Table 9A/9B, read-out: EC50 hMC5-R
# T2 sequence (P32245 whole entry): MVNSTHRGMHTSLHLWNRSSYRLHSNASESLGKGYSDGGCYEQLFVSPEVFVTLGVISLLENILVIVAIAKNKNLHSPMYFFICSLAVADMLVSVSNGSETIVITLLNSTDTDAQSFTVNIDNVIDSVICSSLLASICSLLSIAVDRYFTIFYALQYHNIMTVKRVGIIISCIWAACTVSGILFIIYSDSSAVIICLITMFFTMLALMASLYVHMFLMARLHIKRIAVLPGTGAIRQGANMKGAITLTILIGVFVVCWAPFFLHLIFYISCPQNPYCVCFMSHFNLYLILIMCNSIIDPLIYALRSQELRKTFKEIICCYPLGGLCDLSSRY
# T3 sequence (Q01726 whole entry): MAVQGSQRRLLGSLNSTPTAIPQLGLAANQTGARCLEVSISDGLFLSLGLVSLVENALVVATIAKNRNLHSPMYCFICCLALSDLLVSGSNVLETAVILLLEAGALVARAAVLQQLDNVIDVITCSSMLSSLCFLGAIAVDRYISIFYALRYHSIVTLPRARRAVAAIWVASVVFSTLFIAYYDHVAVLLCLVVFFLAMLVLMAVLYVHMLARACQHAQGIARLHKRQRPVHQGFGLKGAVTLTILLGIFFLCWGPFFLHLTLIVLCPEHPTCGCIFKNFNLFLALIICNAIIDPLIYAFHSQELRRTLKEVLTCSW
# T1 sequence (P41968 whole entry): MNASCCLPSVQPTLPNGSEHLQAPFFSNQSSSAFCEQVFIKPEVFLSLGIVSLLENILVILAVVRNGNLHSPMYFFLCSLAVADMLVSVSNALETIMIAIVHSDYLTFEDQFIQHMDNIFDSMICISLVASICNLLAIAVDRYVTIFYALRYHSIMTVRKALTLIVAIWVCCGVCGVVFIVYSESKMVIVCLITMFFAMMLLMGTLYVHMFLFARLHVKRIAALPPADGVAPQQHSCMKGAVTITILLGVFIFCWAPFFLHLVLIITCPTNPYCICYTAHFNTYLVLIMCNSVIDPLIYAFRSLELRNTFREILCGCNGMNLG
# T4 sequence (P33032 whole entry): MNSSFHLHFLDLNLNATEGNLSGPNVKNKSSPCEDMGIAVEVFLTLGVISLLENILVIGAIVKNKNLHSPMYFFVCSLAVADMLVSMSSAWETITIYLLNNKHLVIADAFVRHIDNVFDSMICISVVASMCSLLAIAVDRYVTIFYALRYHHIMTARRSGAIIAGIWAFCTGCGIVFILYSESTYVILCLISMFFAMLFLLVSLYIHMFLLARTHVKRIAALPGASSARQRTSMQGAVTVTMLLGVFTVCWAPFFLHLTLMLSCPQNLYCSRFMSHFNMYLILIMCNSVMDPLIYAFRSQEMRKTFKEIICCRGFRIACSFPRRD
SMILES,EC50 [1] [nM],EC50 [2] [nM],"EC50 [3, 5] [nM]","EC50 [1, 6] [nM]","EC50 [2, 7] [nM]","EC50 [4, 8] [nM]",further results
CCCC[C@H](NC(C)=O)C(=O)N[C@@H]1C(=O)N[C@H](C)C(=O)N[C@@H](Cc2c[nH]cn2)C(=O)N[C@H](Cc2ccccc2)C(=O)N[C@@H](CCCNC(=N)N)C(=O)N[C@@H](Cc2c[nH]c3ccccc23)C(=O)N[C@H](C(N)=O)CSSC1(C)C [Ac-Nle-c(Pen-D-Ala-His-D-Phe-Arg-Trp-Cys)-NH2],1.89,0.531,–,–,–,–,–
CCCC[C@H](NC(C)=O)C(=O)N[C@H]1CC(=O)NCCCC[C@@H](C(N)=O)NC(=O)CCCNC(=O)[C@H](Cc2c[nH]c3ccccc23)NC(=O)[C@H](CCCNC(=N)N)NC(=O)[C@@H](Cc2ccccc2)NC(=O)[C@H](Cc2c[nH]cn2)NC1=O [Ac-Nle-c(Asp-His-D-Phe-Arg-Trp-Gaba-Lys)-NH2],–,–,1.37,0.628,0.131,3.48,–
C[C@H]1NC(=O)[C@@H](NC(=O)[C@H](CCCNC(=N)N)N2C(=O)CNC2=O)CSSC[C@@H](C(N)=O)NC(=O)[C@H](Cc2c[nH]c3ccccc23)NC(=O)[C@H](CCCNC(=N)N)NC(=O)[C@@H](Cc2ccccc2)NC(=O)[C@H](Cc2cnc[nH]2)NC1=O [Hydantoin(C(O)-(Gly-Arg))-c(Cys-D-Ala-His-D-Phe-Arg-Trp-Cys)-NH2],5.17,0.599,–,–,–,–,EC50 [3]: 8.85 nM
CC(=O)N[C@H]1CSSC[C@@H](C(=O)N2CCC[C@H]2C(=O)N2CCC[C@H]2C(=O)N[C@@H](CCCNC(=N)N)C(=O)N[C@@H](CC(=O)O)C(=O)NCCC(=O)N[C@@H](CCCNC(=N)N)C(=O)N[C@@H](CCCNC(=N)N)C(=O)N[C@@H](CCCNC(=N)N)C(=O)N[C@@H](CCCNC(=N)N)C(=O)N[C@@H](CCCNC(=N)N)C(=O)N[C@@H](CCCNC(=N)N)C(=O)N[C@@H](CCC(N)=O)C(=O)N[C@@H](CCCNC(=N)N)C(=O)N[C@@H](CCCNC(=N)N)C(=O)N[C@@H](CCCNC(=N)N)C(N)=O)NC(=O)[C@H](C)NC(=O)[C@H](Cc2csc3ccccc23)NC(=O)[C@H](CCCNC(=N)N)NC(=O)[C@@H](Cc2ccc3ccccc3c2)NC(=O)[C@H](Cc2c[nH]cn2)NC(=O)[C@H](CCC(=O)O)NC1=O (Ac-CEH[d2Nal]R[Bta]ACPPRD[βAla]RRRRRRQRRR-NH2; disulfide 1-8),–,–,–,–,–,–,EC50 [3]: 86.1 nM; Kb [1]: 41.7 nM; Kb [2]: 19.4 nM; EC50 [4]: 2360 nM
CCCC[C@H](NC(C)=O)C(=O)N[C@H]1CSSC(C)(C)[C@@H](C(N)=O)NC(=O)CCCNC(=O)[C@H](Cc2c[nH]c3ccccc23)NC(=O)[C@H](CCCNC(=N)N)NC(=O)[C@@H](Cc2ccccc2)NC(=O)[C@H](Cc2c[nH]cn2)NC1=O [Ac-Nle-c(Cys-His-D-Phe-Arg-Trp-Gaba-Pen)-NH2] (Ac-[Nle]CH[dF]RW[GABA][Pen]-NH2; disulfide 2-8),–,–,0.28,0.24,0.028,3.9,–
CCCC[C@H](NC(C)=O)C(=O)N[C@H]1CSSC[C@@H](C(N)=O)NC(=O)[C@H](Cc2c[nH]c3ccccc23)NC(=O)[C@H](CCCNC(=N)N)NC(=O)[C@@H](Cc2ccccc2)NC(=O)[C@H](Cc2c[nH]cn2)NC(=O)[C@@H](CC(C)C)NC1=O [Ac-Nle-c(Cys-D-Leu-His-D-Phe-Arg-Trp-Cys)-NH2],–,–,3.24,0.465,0.0915,78.5,–
CC(=O)N[C@H]1CSSC[C@@H](C(=O)N2CCC[C@H]2C(=O)N2CCC[C@H]2C(=O)N[C@@H](CCCCN)C(=O)N[C@@H](CC(=O)O)C(=O)NCCC(=O)N[C@@H](Cc2ccc(O)cc2)C(=O)NCC(=O)N[C@@H](CCCNC(=N)N)C(=O)N[C@@H](CCCNC(=N)N)C(=O)N[C@@H](CCCCN)C(=O)N[C@@H](CCCNC(=N)N)C(=O)N[C@@H](CCCNC(=N)N)C(=O)N[C@@H](CCC(N)=O)C(=O)N[C@@H](CCCNC(=N)N)C(=O)N[C@@H](CCCNC(=N)N)C(=O)N[C@@H](CCCNC(=N)N)C(N)=O)NC(=O)[C@H](C)NC(=O)[C@H](Cc2csc3ccccc23)NC(=O)[C@H](CCCNC(=N)N)NC(=O)[C@@H](Cc2ccc3ccccc3c2)NC(=O)[C@H](Cc2c[nH]cn2)NC(=O)[C@H](CCC(=O)O)NC1=O,–,–,–,–,–,–,EC50 [3]: 19.8 nM; Kb [1]: 37.8 nM; Kb [2]: 8.43 nM; EC50 [4]: 158 nM
CCCC[C@H](NC(C)=O)C(=O)N[C@H]1CC(=O)NCCCC[C@@H](C(N)=O)NC(=O)[C@H](Cc2csc3ccccc23)NC(=O)[C@H](CCCNC(=N)N)NC(=O)[C@@H](Cc2ccccc2)NC(=O)[C@H](Cc2c[nH]cn2)NC(=O)[C@@H](C)NC1=O [Ac-Nle-c(Asp-D-Ala-His-D-Phe-Arg-Bal-Lys)-NH2] (Ac-[Nle]D[dA]H[dF]R[Bta]K-NH2; lactam 2-8),–,–,0.931,3.22,1.65,> 10000,–
N=C(N)NCCC[C@@H]1NC(=O)[C@@H](Cc2ccccc2)NC(=O)[C@H](Cc2cnc[nH]2)NC(=O)[C@H](CCC(=O)O)NC(=O)[C@@H](NC(=O)[C@H](CCCNC(=N)N)N2C(=O)CNC2=O)CSSC[C@@H](C(N)=O)NC(=O)[C@H](Cc2c[nH]c3ccccc23)NC1=O [Hydantoin(C(O)-(Gly-Arg))-c(Cys-Glu-His-D-Phe-Arg-Trp-Cys)-NH2],–,–,–,–,–,–,"EC50 ([3]; Table 11, read-out: EC50 hMC1): 9.97 nM; EC50 ([1]; Table 11, read-out: EC50 hMC3): 3.63 nM; EC50 ([2]; Table 11, read-out: EC50 hMC4): 0.0687 nM; EC50 ([4]; Table 11, read-out: EC50 hMC5): 335 nM"
CCCC[C@H](NC(C)=O)C(=O)N[C@H]1CC(=O)NCCCC[C@@H](C(N)=O)NC(=O)CCNC(=O)[C@H](Cc2c[nH]c3ccccc23)NC(=O)[C@H](CCCNC(=N)N)NC(=O)[C@@H](Cc2ccccc2)NC(=O)[C@H](Cc2c[nH]cn2)NC1=O [Ac-Nle-c(Asp-His-D-Phe-Arg-Trp-β-Ala-Lys)-NH2],–,–,0.834,0.145,0.128,2.79,–
CCCC[C@H](NC(C)=O)C(=O)N[C@H]1CSSC[C@@H](C(N)=O)NC(=O)CCCCNC(=O)[C@H](Cc2c[nH]c3ccccc23)NC(=O)[C@H](CCCNC(=N)N)NC(=O)[C@@H](Cc2ccccc2)NC(=O)[C@H](Cc2c[nH]cn2)NC1=O [Ac-Nle-c(Cys-His-D-Phe-Arg-Trp-Apn-Cys)-NH2] (Ac-[Nle]CH[dF]RW[Ava]C-NH2; disulfide 2-8),–,–,0.76,0.199,0.0492,1.73,–
CCCC[C@@H](C(=O)N[C@H]1CSSC[C@@H](C(N)=O)NC(=O)[C@H](Cc2c[nH]c3ccccc23)NC(=O)[C@H](CCCNC(=N)N)NC(=O)[C@@H](Cc2ccccc2)NC(=O)[C@H](Cc2cnc[nH]2)NC(=O)[C@@H](C)NC1=O)N1C(=O)N[C@@H](CC(C)C)C1=O [Hydantoin(C(O)-(Leu-Nle))-c(Cys-D-Ala-His-D-Phe-Arg-Trp-Cys)-NH2],9.68,1.83,–,–,–,–,–
CC(=O)N[C@H]1CSSC[C@@H](C(=O)N2CCC[C@H]2C(=O)N2CCC[C@H]2C(=O)N[C@@H](CCCCN)C(=O)N[C@@H](CC(=O)O)C(=O)NCCC(=O)N[C@@H](CCCNC(=N)N)C(=O)N[C@@H](CCCNC(=N)N)C(=O)N[C@@H](CCCNC(=N)N)C(=O)N[C@@H](CCCNC(=N)N)C(=O)N[C@@H](CCCNC(=N)N)C(=O)N[C@@H](CCC(N)=O)C(=O)N[C@@H](CCCNC(=N)N)C(=O)N[C@@H](CCCNC(=N)N)C(=O)N[C@@H](CCCNC(=N)N)C(N)=O)NC(=O)[C@H](C)NC(=O)[C@H](Cc2csc3ccccc23)NC(=O)[C@H](CCCNC(=N)N)NC(=O)[C@@H](Cc2ccc3ccccc3c2)NC(=O)[C@H](Cc2c[nH]cn2)NC(=O)[C@H](CCC(=O)O)NC1=O,–,–,–,–,–,–,EC50 [3]: 52 nM; Kb [1]: 170 nM; Kb [2]: 6.14 nM; EC50 [4]: 328 nM
CCCC[C@H](NC(C)=O)C(=O)N[C@H]1CC(=O)NCCCC[C@@H](C(N)=O)NC(=O)[C@H](C)NC(=O)[C@H](Cc2c[nH]c3ccccc23)NC(=O)[C@H](CCCNC(=N)N)NC(=O)[C@@H](Cc2ccc3ccccc3c2)NC(=O)[C@H](Cc2c[nH]cn2)NC1=O [Ac-Nle-c(Asp-His-D-2-Nal-Arg-Trp-Ala-Lys)-NH2],–,–,–,–,–,–,"EC50 ([3]; Table 9C/9D, read-out: EC50 hMC1-R): 0.619 nM"
C[C@@H]1NC(=O)N(CC(=O)N[C@H]2CSSC[C@@H](C(N)=O)NC(=O)[C@H](Cc3c[nH]c4ccccc34)NC(=O)[C@H](CCCNC(=N)N)NC(=O)[C@@H](Cc3ccccc3)NC(=O)[C@H](Cc3cnc[nH]3)NC(=O)[C@@H](C)NC2=O)C1=O [Hydantoin(C(O)-(Ala-Gly))-c(Cys-D-Ala-His-D-Phe-Arg-Trp-Cys)-NH2],2.23,0.241,–,–,–,–,EC50 [4]: 516 nM
N=C(N)NCCC[C@@H]1NC(=O)[C@@H](Cc2ccccc2)NC(=O)[C@H](Cc2cnc[nH]2)NC(=O)[C@H](CCC(=O)O)NC(=O)[C@@H](NC(=O)CN2C(=O)CNC2=O)CSSC[C@@H](C(N)=O)NC(=O)[C@H](Cc2c[nH]c3ccccc23)NC1=O [Hydantoin(C(O)-(Gly-Gly))-c(Cys-Glu-His-D-Phe-Arg-Trp-Cys)-NH2],–,–,–,–,–,–,"EC50 ([3]; Table 11, read-out: EC50 hMC1): 124 nM; EC50 ([1]; Table 11, read-out: EC50 hMC3): 8.05 nM"
C[C@H]1NC(=O)[C@@H](NC(=O)CN2C(=O)N[C@@H](CCCNC(=N)N)C2=O)CSSC[C@@H](C(N)=O)NC(=O)[C@H](Cc2c[nH]c3ccccc23)NC(=O)[C@H](CCCNC(=N)N)NC(=O)[C@@H](Cc2ccccc2)NC(=O)[C@H](Cc2cnc[nH]2)NC1=O [Hydantoin(C(O)-(Arg-Gly))-c(Cys-D-Ala-His-D-Phe-Arg-Trp-Cys)-NH2],18.2,0.503,–,–,–,–,EC50 [3]: 8.81 nM
CCCC[C@@H](C(=O)N[C@H]1CSSC[C@@H](C(N)=O)NC(=O)[C@H](Cc2c[nH]c3ccccc23)NC(=O)[C@H](CCCNC(=N)N)NC(=O)[C@@H](Cc2ccccc2)NC(=O)[C@H](Cc2cnc[nH]2)NC(=O)[C@@H](C)NC1=O)N1C(=O)N[C@@H](C(C)C)C1=O [Hydantoin(C(O)-(Val-Nle))-c(Cys-D-Ala-His-D-Phe-Arg-Trp-Cys)-NH2],4.61,0.977,–,–,–,–,–
